# Values quoted from earlier work, collected in US11497789B2, “Formulations of vancomycin” (SciDose Pharma LLC, priority 2016, dated 2022).
# Details: after reconstitution of the lyophilized product
smiles,measurement,value
CN[C@H](CC(C)C)C(=O)N[C@H]1C(=O)N[C@@H](CC(N)=O)C(=O)N[C@H]2C(=O)N[C@H]3C(=O)N[C@H](C(=O)N[C@H](C(=O)O)c4cc(O)cc(O)c4-c4cc3ccc4O)[C@H](O)c3ccc(c(Cl)c3)Oc3cc2cc(c3O[C@@H]2O[C@H](CO)[C@@H](O)[C@H](O)[C@H]2O[C@H]2C[C@](C)(N)[C@H](O)[C@H](C)O2)Oc2ccc(cc2Cl)[C@H]1O [Vancomycin],time stable in water after reconstitution,approximately 24 hours
